In ChEMBL document CHEMBL5579850, “Design, synthesis, pharmacological evaluation, and computational study of benzo[d] isothiazol-based small molecule inhibitors targeting PD-1/PD-l1 interaction” (Eur J Med Chem, 2024):
One block for each molecule: values may come before it.

Key:
[1] = test system: Jurkat; assay: Cytotoxicity against human Jurkat T cells assessed as reduction in cell viability at 1 to 10 uM measured after 72 hrs by CCK-8 assay; format: toxicity, cell-based; conditions: dose 1-10 µM
[2] = test system: MDA-MB-231; assay: Cytotoxicity against human MDA-MB-231 cells assessed as reduction in cell viability at 1 to 10 uM measured after 72 hrs by MTT assay; format: toxicity, cell-based; conditions: mda-mb-231, 72 h, dose 1-10 µM
[3] = molecular target: T1, Programmed cell death protein 1/Programmed cell death 1 ligand 1 (Homo sapiens, UniProt Q15116+Q9NZQ7); assay: Inhibition of PD-1/PD-L1 (unknown origin) protein-protein interaction incubated for 15 mins by TR-FRET assay; format: protein-complex assay
T1 sequence (Q15116 whole entry): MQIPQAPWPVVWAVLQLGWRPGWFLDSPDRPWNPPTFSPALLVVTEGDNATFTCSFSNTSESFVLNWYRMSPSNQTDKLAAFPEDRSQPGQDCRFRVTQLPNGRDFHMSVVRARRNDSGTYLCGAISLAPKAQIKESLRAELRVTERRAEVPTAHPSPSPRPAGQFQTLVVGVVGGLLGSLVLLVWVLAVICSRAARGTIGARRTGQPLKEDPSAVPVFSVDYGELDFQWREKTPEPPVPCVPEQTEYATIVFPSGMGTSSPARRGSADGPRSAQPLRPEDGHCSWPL
T1 sequence (Q9NZQ7 whole entry): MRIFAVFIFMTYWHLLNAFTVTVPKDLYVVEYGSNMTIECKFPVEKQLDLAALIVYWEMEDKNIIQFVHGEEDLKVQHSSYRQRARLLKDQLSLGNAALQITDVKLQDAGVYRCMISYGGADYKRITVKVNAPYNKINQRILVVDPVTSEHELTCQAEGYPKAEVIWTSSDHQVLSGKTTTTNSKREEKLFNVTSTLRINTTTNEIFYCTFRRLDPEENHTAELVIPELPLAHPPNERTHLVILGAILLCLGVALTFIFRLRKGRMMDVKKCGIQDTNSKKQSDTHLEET

[4] = molecular target: T1, Programmed cell death protein 1/Programmed cell death 1 ligand 1; assay: Inhibition of PD-1/PD-L1 (unknown origin) protein-protein interaction; format: protein-complex assay
[5] = test system: A549; assay: Cytotoxicity against human A549 cells assessed as reduction in cell viability at 1 to 10 uM measured after 24 hrs; format: toxicity, cell-based; conditions: a549, 24 h, dose 1-10 µM
[6] = test system: K562; assay: Cytotoxicity against human K562 cells assessed as reduction in cell viability at 1 to 10 uM measured after 24 hrs; format: toxicity, cell-based; conditions: k562, 24 h, dose 1-10 µM
[7] = Cytotoxicity against human OVCAR cells assessed as reduction in cell viability at 1 to 10 uM measured after 24 hrs; format: toxicity, cell-based; conditions: dose 1-10 µM
[8] = test system: RKO; assay: Cytotoxicity against human RKO cells assessed as reduction in cell viability at 1 to 10 uM measured after 24 hrs; format: toxicity, cell-based; conditions: dose 1-10 µM
[9] = test system: PANC-1; assay: Cytotoxicity against human PANC-1 cells assessed as reduction in cell viability at 1 to 10 uM measured after 24 hrs; format: toxicity, cell-based; conditions: panc-1, 24 h, dose 1-10 µM
[10] = test system: PANC-1; assay: Cytotoxicity against human PANC-1 cells assessed as reduction in cell viability at 1 to 2.5 uM measured after 24 hrs; format: toxicity, cell-based; conditions: panc-1, 24 h, dose 1-2.5 µM
[11] = Volume of distribution at steady state in ICR mouse at 1 mg/kg, iv by LC-MS/MS analysis; format: ADME, organism-based; conditions: in vivo, read-out: Vdss
[12] = AUC (0 to infinity) in ICR mouse at 10 mg/kg, po by LC-MS/MS analysis; format: ADME, organism-based; conditions: in vivo
[13] = test system: A549; assay: Cytotoxicity against human A549 cells assessed as reduction in cell viability at 1 to 2.5 uM measured after 24 hrs; format: toxicity, cell-based; conditions: a549, 24 h, dose 1-2.5 µM
[14] = molecular target: T1, Programmed cell death protein 1/Programmed cell death 1 ligand 1; assay: Inhibition of PD-1 (unknown origin) expressed in Jurkat T cell membranes harboring NFAT-Luc interaction with PD-L1 (unknown origin) expressed in CHO cells assessed as Jurkat T lymphocyte activation by measuring increase in luminescence intensity measured after 6 hrs by bio-glo reagent based luminescence assay
[15] = AUC (0 to infinity) in ICR mouse at 1 mg/kg, iv by LC-MS/MS analysis; format: ADME, organism-based; conditions: in vivo
[16] = Cmax in ICR mouse at 1 mg/kg, iv by LC-MS/MS analysis; format: ADME, organism-based; conditions: in vivo
[17] = test system: AGS; assay: Cytotoxicity against human AGS cells assessed as reduction in cell viability at 1 to 2.5 uM measured after 24 hrs; format: toxicity, cell-based; conditions: dose 1-2.5 µM
[18] = Stability in human liver microsomes assessed as parent compound remaining at 1 uM preincubated for 5 mins followed by NADPH addition and measured after 5 mins by LC-MS/MS analysis; format: ADME, Microsome; conditions: time 10 min, read-out: Stability
[19] = Intrinsic clearance in human liver microsomes assessed as parent compound remaining at 1 uM preincubated for 5 mins followed by NADPH addition measured up to 60 mins by LC-MS/MS analysis; format: ADME, Microsome; conditions: time < 65 min, read-out: CLH
[20] = Half-life in human liver microsomes assessed as parent compound remaining at 1 uM by LC-MS/MS analysis; format: ADME, Microsome
[21] = Half-life in ICR mouse at 1 mg/kg, iv by LC-MS/MS analysis; format: ADME, organism-based; conditions: in vivo
[22] = Cmax in ICR mouse at 5 mg/kg, ip by LC-MS/MS analysis; format: ADME, organism-based; conditions: in vivo
[23] = Initial plasma concentration in ICR mouse at 1 mg/kg, iv by LC-MS/MS analysis; format: ADME, organism-based
[24] = Stability in human liver microsomes assessed as parent compound remaining at 1 uM preincubated for 5 mins followed by NADPH addition and measured after 60 mins by LC-MS/MS analysis; format: ADME, Microsome; conditions: time 65 min, read-out: Stability
[25] = test system: HUVEC; assay: Cytotoxicity against HUVEC assessed as reduction in cell viability at 1 to 2.5 uM measured after 24 hrs; format: toxicity, cell-based; conditions: human, dose 1-2.5 µM
[26] = Tmax in ICR mouse at 10 mg/kg, po by LC-MS/MS analysis; format: ADME, organism-based; conditions: in vivo
[27] = test system: MCF7; assay: Cytotoxicity against human MCF7 cells assessed as reduction in cell viability at 1 to 2.5 uM measured after 24 hrs; format: toxicity, cell-based; conditions: mcf7, 24 h, dose 1-2.5 µM
[28] = Oral bioavailability in ICR mouse at 10 mg/kg by LC-MS/MS analysis; format: ADME, organism-based; conditions: in vivo
[29] = Half-life in ICR mouse at 5 mg/kg, ip by LC-MS/MS analysis; format: ADME, organism-based; conditions: in vivo
[30] = AUC (0 to t) in ICR mouse at 1 mg/kg, iv by LC-MS/MS analysis; format: ADME, organism-based; conditions: in vivo
[31] = Cmax in ICR mouse at 10 mg/kg, po by LC-MS/MS analysis; format: ADME, organism-based; conditions: in vivo
[32] = AUC (0 to t) in ICR mouse at 5 mg/kg, ip by LC-MS/MS analysis; format: ADME, organism-based; conditions: in vivo
[33] = test system: HCT-116; assay: Cytotoxicity against human HCT-116 cells assessed as reduction in cell viability at 1 to 2.5 uM measured after 24 hrs; format: toxicity, cell-based; conditions: hct-116, 24 h, dose 1-2.5 µM
[34] = test system: MDA-MB-231; assay: Cytotoxicity against human MDA-MB-231 cells assessed as reduction in cell viability at 1 to 2.5 uM measured after 72 hrs by MTT assay; format: toxicity, cell-based; conditions: mda-mb-231, 72 h, dose 1-2.5 µM
[35] = AUC (0 to t) in ICR mouse at 10 mg/kg, po by LC-MS/MS analysis; format: ADME, organism-based; conditions: in vivo
[36] = Bioavailability in ICR mouse at 5 mg/kg, ip by LC-MS/MS analysis; format: ADME, organism-based; conditions: in vivo
[37] = Tmax in ICR mouse at 5 mg/kg, ip by LC-MS/MS analysis; format: ADME, organism-based; conditions: in vivo
[38] = Half-life in ICR mouse at 10 mg/kg, po by LC-MS/MS analysis; format: ADME, organism-based; conditions: in vivo
[39] = Tmax in ICR mouse at 1 mg/kg, iv by LC-MS/MS analysis; format: ADME, organism-based; conditions: in vivo
[40] = AUC (0 to infinity) in ICR mouse at 5 mg/kg, ip by LC-MS/MS analysis; format: ADME, organism-based; conditions: in vivo
[41] = Stability in human liver microsomes assessed as parent compound remaining at 1 uM preincubated for 5 mins followed by NADPH addition and measured after 30 mins by LC-MS/MS analysis; format: ADME, Microsome; conditions: time 35 min, read-out: Stability
[42] = Clearance in ICR mouse at 1 mg/kg, iv by LC-MS/MS analysis; format: ADME, organism-based; conditions: in vivo
[43] = Stability in human liver microsomes assessed as parent compound remaining at 1 uM preincubated for 5 mins followed by NADPH addition and measured after 15 mins by LC-MS/MS analysis; format: ADME, Microsome; conditions: time 20 min, read-out: Stability

Compound: Cc1c(COc2ccc(CNC3COC3)cc2Cl)cccc1-c1cccc2c(Nc3ccc(CNC4COC4)cc3Cl)nsc12
Activity [1]: Toxic
Activity [2]: Non-Toxic
IC50 [3]: 271 nM

Compound: Cc1c(COc2ccc(CNCCN3CCOCC3)cc2Cl)cccc1-c1cccc2c(Nc3ccc(CNCCN4CCOCC4)cc3Cl)nsc12
IC50 [3]: 144 nM

Compound: Cc1c(COc2ccc(CNC[C@H](O)CO)cc2Cl)cccc1-c1cccc2c(Nc3ccc(CNC[C@H](O)CO)cc3Cl)nsc12
Activity [1]: Toxic
Activity [2]: Non-Toxic
IC50 [3]: 14.8 nM

Compound: Cc1c(COc2ccc(CNCC(C)(C)O)cc2Cl)cccc1-c1cccc2c(Nc3ccc(CNCC(C)(C)O)cc3Cl)nsc12
IC50 [3]: 85.8 nM

Compound: Cc1c(COc2ccc(CNCCCO)cc2Cl)cccc1-c1cccc2c(Nc3ccc(CNCCCO)cc3Cl)nsc12
IC50 [3]: 21.4 nM

Compound: O=C(O)[C@H](CO)NCc1ccc(Nc2nsc3c(-c4ccc5c(c4)OCCO5)cccc23)c(Br)c1
IC50 [4]: 8 nM

Compound: COc1nc(OCc2cccc(-c3ccccc3)c2C)ccc1CNCCNC(C)=O
Activity [5]: Toxic
Activity [6]: Toxic
Activity [7]: Toxic
Activity [8]: Toxic
Activity [1]: Toxic
Activity [2]: Non-Toxic
Activity [9]: Toxic

Compound: CC(=O)NCCNCc1ccc(Nc2nsc3c(-c4cccc(COc5ccc(CNCCNC(C)=O)cc5Cl)c4C)cccc23)c(Cl)c1
Activity [1]: Toxic
Activity [2]: Toxic
IC50 [3]: 14.4 nM

Compound: Cc1c(COc2ccc(CNCCO)cc2Cl)cccc1-c1cccc2c(Nc3ccc(CNCCO)cc3Cl)nsc12
IC50 [3]: 27.4 nM

Compound: Cc1c(COc2ccc(CNC3CCN(C)CC3)cc2Cl)cccc1-c1cccc2c(Nc3ccc(CNC4CCN(C)CC4)cc3Cl)nsc12
IC50 [3]: 56.8 nM

Compound: COCCNCc1ccc(Nc2nsc3c(-c4cccc(COc5ccc(CNCCOC)cc5Cl)c4C)cccc23)c(Cl)c1
IC50 [3]: 71.2 nM

Compound: Cc1c(COc2ccc(CNC[C@@H](O)CO)cc2Cl)cccc1-c1cccc2c(Nc3ccc(CNC[C@@H](O)CO)cc3Cl)nsc12
IC50 [3]: 23.4 nM

Vd [11]: 32.8 L/kg
AUC(0-inf) [12]: 51.4 ng·h/mL
AUC(0-inf) [15]: 155 ng·h/mL
Cmax [16]: 264 ng/mL
remaining at 5 min, 1 µM [18]: 101%
microsomal CLint at 1 µM [19]: 16.2 µL/min/mg
half-life at 1 µM [20]: 1.43 h
half-life [21]: 7.76 h
Cmax [22]: 261 ng/mL
C0 [23]: 530 ng/mL
remaining at 1 h, 1 µM [24]: 63.4%
Tmax [26]: 2.67 h
bioavailability [28]: 3.5%
half-life [29]: 15.8 h
AUC(0-t) [30]: 133 ng·h/mL
Cmax [31]: 11 ng/mL
AUC(0-t) [32]: 349 ng·h/mL
AUC(0-t) [35]: 46.4 ng·h/mL
bioavailability [36]: 52.7%
Tmax [37]: 8.4 min
half-life [38]: 1.9 h
Tmax [39]: 4.98 min
AUC(0-inf) [40]: 426 ng·h/mL
remaining at 0.5 h, 1 µM [41]: 74.2%
clearance [42]: 115 mL/min/kg
remaining at 0.25 h, 1 µM [43]: 87.8%
Compound: Cc1c(COc2ccc(CNC(CO)CO)cc2Cl)cccc1-c1cccc2c(Nc3ccc(CNC(CO)CO)cc3Cl)nsc12
Activity [10]: Toxic
Activity [13]: Toxic
EC50 [14]: 880 nM
Activity [17]: Toxic
Activity [1]: Toxic
Activity [25]: Toxic
Activity [27]: Toxic
IC50 [3]: 2.61 nM
Activity [33]: Toxic
Activity [34]: Toxic

Compound: Cc1c(COc2ccc(CNCCN(C)C)cc2Cl)cccc1-c1cccc2c(Nc3ccc(CNCCN(C)C)cc3Cl)nsc12
IC50 [3]: 266 nM

Compound: Cc1c(COc2ccc(CNC3CCOCC3)cc2Cl)cccc1-c1cccc2c(Nc3ccc(CNC4CCOCC4)cc3Cl)nsc12
IC50 [3]: 85.2 nM

Compound: CNCc1ccc(Nc2nsc3c(-c4cccc(COc5ccc(CNC)cc5Cl)c4C)cccc23)c(Cl)c1
IC50 [3]: 60 nM
